The source of these data is patent publication US8906904B2, “Alkoxy pyrazoles as soluble guanylate cyclase activators” (Boehringer Ingelheim International GmbH, priority 2012, dated 2014).

Tested on in one series: not listed separately
Nature of the series: human liver microsome (HLM) metabolic stability assay. The series is classed as in vitro ADME. The note with it: human liver microsomes; % hepatic blood flow calculated from t1/2. The method in brief:
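Compounds at 1 uM incubated with human liver microsomes plus NADPH at 37° C., sampled at 0, 5, 15, 30 and 60 min into cold acetonitrile and quantified by LC/MS/MS. t½ from the slope of ln % remaining vs time; CLint, CLh and % Qh derived from it (n=1).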
With `COc1c(C(=O)O)cnn1-c1cccc(-c2cccc(C)c2OCc2ccc3c(c2C)CCN(C[C@H]2CCCO2)CC3)n1` [Compound 222], the “HLM (% Qh)” value was less than 24 % Qh.
Take `COc1c(C(=O)O)cnn1-c1cccc(-c2cccc(C)c2OCc2ccc3c(c2C)CCN(C[C@@H]2CCCO2)CC3)n1` [Compound 223]: the “HLM (% Qh)” value is reported as less than 24 % Qh.
Still for that read-out and setting: in the case of `CCOc1c(C(=O)O)cnn1-c1cccc(-c2cccc(C)c2OCc2ccc3c(c2C)CCN([C@H]2CCOC2)CC3)n1` [Compound 225] it was less than 24 % Qh; in that of `CCOc1c(C(=O)O)cnn1-c1cccc(-c2cccc(C)c2OCc2ccc3c(c2C)CCN(C[C@H]2CCO2)CC3)n1` [Compound 226], 52 % Qh; in that of `CCOc1c(C(=O)O)cnn1-c1cccc(-c2cccc(C)c2OCc2ccc3c(c2C)CCN([C@@H]2CCOC2)CC3)n1` [Compound 227], 25 % Qh.
Same read-out and setting: in the case of `CCOc1c(C(=O)O)cnn1-c1cccc(-c2cccc(C)c2OCc2ccc3c(c2C)CCN(C[C@@H]2CCO2)CC3)n1` [Compound 228] it was 44 % Qh.
On to `COc1c(C(=O)O)cnn1-c1cccc(-c2cccc(C)c2OCc2cc(F)c3c(c2)CCN(C[C@H]2CCCCO2)C3)n1` [Compound 229], for which the “HLM (% Qh)” value is given as 34 % Qh.
Still for that read-out and setting: then `COc1c(C(=O)O)cnn1-c1cccc(-c2cccc(C)c2OCc2ccc3c(c2F)CCN(C[C@@H]2COCCO2)C3)n1` [Compound 231], with less than 24 % Qh; and `CCOc1c(C(=O)O)cnn1-c1cccc(-c2cccc(C)c2OCc2ccc3c(c2C)CCN(C[C@H]2CCCCO2)C3)n1` [Compound 232], with less than 24 % Qh.
Still for that read-out and setting: then `CCOc1c(C(=O)O)cnn1-c1cccc(-c2cccc(C)c2OCc2ccc3c(c2C)CCN(C[C@H]2CCCO2)CC3)n1` [Compound 233], with 26 % Qh; and `COc1c(C(=O)O)cnn1-c1cccc(-c2cccc(C)c2OCc2ccc3c(c2F)CCN(C[C@H]2COCCO2)C3)n1` [Compound 234], with less than 24 % Qh; and `CCOc1c(C(=O)O)cnn1-c1cccc(-c2cccc(C)c2OCc2ccc3c(c2C)CCN(C[C@@H]2CCCO2)CC3)n1` [Compound 235], with 29 % Qh.
For the compound `CCOc1c(C(=O)O)cnn1-c1cccc(-c2cccc(C)c2OCc2ccc3c(c2C)CCN(C[C@@H]2CCCCO2)C3)n1` [Compound 236], the “HLM (% Qh)” value is recorded as less than 24 % Qh.
Still for that read-out and setting: in the case of `COc1c(C(=O)O)cnn1-c1cccc(-c2cccc(C)c2OCc2cc(C)c3c(c2)CCN(C2CCCOC2)C3)n1` (stereo not drawn) [Compound 237] it was less than 24 % Qh.
Still for that read-out and setting: then `COc1c(C(=O)O)cnn1-c1cccc(-c2cccc(C)c2OCc2ccc3c(c2C)CCN(C2CCCOC2)C3)n1` (stereo not drawn) [Compound 238], with less than 24 % Qh.
Still for that read-out and setting: in the case of `COc1c(C(=O)O)cnn1-c1cccc(-c2cccc(C)c2OCc2cc(C)c3c(c2)CCN(CC2(C)COC2)C3)n1` [Compound 239] it was 25 % Qh.
For `COc1c(C(=O)O)cnn1-c1cccc(-c2cccc(C)c2OCc2cc(C)c3c(c2)CCN(CC2COCCO2)C3)n1` (stereo not drawn) [Compound 240], the “HLM (% Qh)” value is less than 24 % Qh.
Take `CCOc1c(C(=O)O)cnn1-c1cccc(-c2cccc(C)c2OCc2cc(C)c3c(c2)CCN(C2CCOC2)C3)n1` (stereo not drawn) [Compound 241]: the “HLM (% Qh)” value is less than 24 % Qh.

The target in the next series is T1, human soluble guanylate cyclase alpha 1 and beta 1 subunits (sGC) (Homo sapiens, UniProt Q02108+Q02153).
T1 construct: expressed in transfected cells; host or cells: Chinese hamster ovary (CHO) cells, stably transfected
T1 sequence (Q02108 1-690): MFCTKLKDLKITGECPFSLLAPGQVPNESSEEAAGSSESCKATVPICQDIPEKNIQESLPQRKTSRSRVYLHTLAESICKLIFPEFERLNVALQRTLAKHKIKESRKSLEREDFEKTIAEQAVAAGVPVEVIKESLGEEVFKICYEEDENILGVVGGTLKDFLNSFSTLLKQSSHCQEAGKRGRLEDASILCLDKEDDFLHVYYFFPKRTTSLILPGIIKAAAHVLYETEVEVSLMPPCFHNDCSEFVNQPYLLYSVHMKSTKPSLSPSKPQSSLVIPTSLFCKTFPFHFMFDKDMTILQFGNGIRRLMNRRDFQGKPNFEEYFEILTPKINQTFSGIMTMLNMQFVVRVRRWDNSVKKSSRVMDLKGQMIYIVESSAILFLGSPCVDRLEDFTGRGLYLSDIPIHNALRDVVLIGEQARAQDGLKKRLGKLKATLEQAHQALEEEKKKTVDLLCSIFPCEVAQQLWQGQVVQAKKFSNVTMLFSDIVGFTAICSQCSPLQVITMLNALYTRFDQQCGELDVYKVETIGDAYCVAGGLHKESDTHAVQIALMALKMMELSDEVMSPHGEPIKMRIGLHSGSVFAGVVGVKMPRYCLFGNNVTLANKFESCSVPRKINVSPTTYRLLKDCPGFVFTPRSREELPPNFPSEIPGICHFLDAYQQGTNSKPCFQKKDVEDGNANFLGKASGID
T1 sequence (Q02153 1-619): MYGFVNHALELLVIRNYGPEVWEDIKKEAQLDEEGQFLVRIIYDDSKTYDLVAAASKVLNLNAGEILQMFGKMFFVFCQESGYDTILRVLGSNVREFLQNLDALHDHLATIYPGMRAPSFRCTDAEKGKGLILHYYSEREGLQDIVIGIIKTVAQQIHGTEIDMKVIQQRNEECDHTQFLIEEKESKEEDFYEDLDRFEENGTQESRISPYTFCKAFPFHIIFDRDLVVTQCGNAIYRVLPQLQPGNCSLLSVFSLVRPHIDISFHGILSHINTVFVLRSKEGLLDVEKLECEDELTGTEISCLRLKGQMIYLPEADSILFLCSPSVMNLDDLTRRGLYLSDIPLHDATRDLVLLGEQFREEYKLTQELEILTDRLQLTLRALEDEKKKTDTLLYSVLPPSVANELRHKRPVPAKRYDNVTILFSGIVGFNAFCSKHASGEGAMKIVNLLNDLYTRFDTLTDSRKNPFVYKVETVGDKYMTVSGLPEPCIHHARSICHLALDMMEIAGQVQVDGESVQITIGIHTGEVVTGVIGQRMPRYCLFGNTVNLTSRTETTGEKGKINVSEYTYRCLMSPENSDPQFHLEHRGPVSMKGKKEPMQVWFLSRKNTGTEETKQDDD
The experiment in a line: sGC cellular activator assay (cGMP, HTRF). The series is classed as cell-based. The note with it: CHO cells stably expressing human sGC alpha 1/beta 1, preincubated with 40 microM ODQ; cGMP readout; assay run with and without 50% human serum, Table 2 does not say which. The method in brief: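 First, CHO-sGC (human α1β1) cells get 1 h ODQ at 40 microM with IBMX and 0.1% BSA. Finally, cGMP is quantified by HTRF and EC50 computed.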
On the technique in general: TR-FRET usually uses a lanthanide donor and a delayed reading to cut background.
By EC50 is commonly meant the concentration giving half of the maximal effect. `COc1c(C(=O)O)cnn1-c1cccc(-c2cccc(C)c2OCc2ccc3c(c2C)CCN(C[C@H]2CCCO2)CC3)n1` [Compound 222] yielded an EC50 of 5.4 nM. That is a single-digit nanomolar value.
The same measure, in the same setting: then `COc1c(C(=O)O)cnn1-c1cccc(-c2cccc(C)c2OCc2ccc3c(c2C)CCN(C[C@@H]2CCCO2)CC3)n1` [Compound 223], with 8.5 nM; and `CCOc1c(C(=O)O)cnn1-c1cccc(-c2cccc(C)c2OCc2ccc3c(c2C)CCN([C@H]2CCOC2)CC3)n1` [Compound 225], with 10 nM.
On the same count and under the same terms, in the case of `CCOc1c(C(=O)O)cnn1-c1cccc(-c2cccc(C)c2OCc2ccc3c(c2C)CCN(C[C@H]2CCO2)CC3)n1` [Compound 226] it was 12 nM.
Same read-out and setting: in the case of `CCOc1c(C(=O)O)cnn1-c1cccc(-c2cccc(C)c2OCc2ccc3c(c2C)CCN([C@@H]2CCOC2)CC3)n1` [Compound 227] it was 13 nM; in that of `CCOc1c(C(=O)O)cnn1-c1cccc(-c2cccc(C)c2OCc2ccc3c(c2C)CCN(C[C@@H]2CCO2)CC3)n1` [Compound 228], 14 nM; in that of `COc1c(C(=O)O)cnn1-c1cccc(-c2cccc(C)c2OCc2cc(F)c3c(c2)CCN(C[C@H]2CCCCO2)C3)n1` [Compound 229], 3.9 nM.
As to `COc1c(C(=O)O)cnn1-c1cccc(-c2cccc(C)c2OCc2ccc3c(c2F)CCN(C[C@@H]2COCCO2)C3)n1` [Compound 231], the EC50 worked out at 4.6 nM. The EC50 values of the last two compounds are within 1.5-fold of each other.
The same measure, in the same setting: in the case of `CCOc1c(C(=O)O)cnn1-c1cccc(-c2cccc(C)c2OCc2ccc3c(c2C)CCN(C[C@H]2CCCCO2)C3)n1` [Compound 232] it was 9.5 nM; in that of `CCOc1c(C(=O)O)cnn1-c1cccc(-c2cccc(C)c2OCc2ccc3c(c2C)CCN(C[C@H]2CCCO2)CC3)n1` [Compound 233], 11 nM; in that of `COc1c(C(=O)O)cnn1-c1cccc(-c2cccc(C)c2OCc2ccc3c(c2F)CCN(C[C@H]2COCCO2)C3)n1` [Compound 234], 13 nM.
`CCOc1c(C(=O)O)cnn1-c1cccc(-c2cccc(C)c2OCc2ccc3c(c2C)CCN(C[C@@H]2CCCO2)CC3)n1` [Compound 235] returned an EC50 of 20 nM. Against the preceding compound, the EC50 is about 1.5-fold higher.
Compound `CCOc1c(C(=O)O)cnn1-c1cccc(-c2cccc(C)c2OCc2ccc3c(c2C)CCN(C[C@@H]2CCCCO2)C3)n1` [Compound 236] showed a 50% effective concentration (EC50) of 28 nM.
On to `COc1c(C(=O)O)cnn1-c1cccc(-c2cccc(C)c2OCc2cc(C)c3c(c2)CCN(C2CCCOC2)C3)n1` (stereo not drawn) [Compound 237], for which the EC50 was found to be 4.9 nM.
`COc1c(C(=O)O)cnn1-c1cccc(-c2cccc(C)c2OCc2ccc3c(c2C)CCN(C2CCCOC2)C3)n1` (stereo not drawn) [Compound 238]: a half-maximal effect (EC50) was put at 5.1 nM. The EC50 values of the last two compounds are within 1.5-fold of each other.
Still for that read-out and setting: in the case of `COc1c(C(=O)O)cnn1-c1cccc(-c2cccc(C)c2OCc2cc(C)c3c(c2)CCN(CC2(C)COC2)C3)n1` [Compound 239] it was 6.5 nM; in that of `COc1c(C(=O)O)cnn1-c1cccc(-c2cccc(C)c2OCc2cc(C)c3c(c2)CCN(CC2COCCO2)C3)n1` (stereo not drawn) [Compound 240], 7.9 nM.
On to `CCOc1c(C(=O)O)cnn1-c1cccc(-c2cccc(C)c2OCc2cc(C)c3c(c2)CCN(C2CCOC2)C3)n1` (stereo not drawn) [Compound 241], for which the EC50 turned out to be 8 nM.
